PubChem BioAssay (NCI)
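Tested at 5 concentrations; 48 h exposure; 96-well plates; endpoints linearly interpolated, else capped at highest concentration. Here, GI50 denotes the concentration required for 50% inhibition of growth. At the TGI there is no net growth.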

What was measured:
Test in all cases: NCI-60 cell line screen, 48 h; in the data active = GI50 below about 0.43 µM; inactive = the rest
A549 NSCLC = system: A549 NSCLC
SK-MEL-28 melanoma = system: SK-MEL-28 melanoma
ACHN renal = system: ACHN renal
CCRF-CEM leukemia = system: CCRF-CEM leukemia
SK-MEL-5 melanoma = system: SK-MEL-5 melanoma
SN12C renal = system: SN12C renal
HOP-92 NSCLC = system: HOP-92 NSCLC
SNB-75 CNS = system: SNB-75 CNS
COLO 205 colon = system: COLO 205 colon
CAKI-1 renal = system: CAKI-1 renal
SF-539 CNS = system: SF-539 CNS
RXF 393 renal = system: RXF 393 renal
SK-MEL-2 melanoma = system: SK-MEL-2 melanoma
SF-268 CNS = system: SF-268 CNS
HCT-15 colon = system: HCT-15 colon
K-562 leukemia = system: K-562 leukemia
IGROV1 ovarian = system: IGROV1 ovarian
MDA-MB-231 breast = system: MDA-MB-231 breast
KM12 colon = system: KM12 colon
HL-60(TB) leukemia = system: HL-60(TB) leukemia
HCC-2998 colon = system: HCC-2998 colon
M14 melanoma = system: M14 melanoma
OVCAR-4 ovarian = system: OVCAR-4 ovarian
DU-145 prostate = system: DU-145 prostate
HOP-62 NSCLC = system: HOP-62 NSCLC
HCT-116 colon = system: HCT-116 colon
NCI-H226 lung = system: NCI-H226 lung
EKVX NSCLC = system: EKVX NSCLC
BT-549 breast = system: BT-549 breast
OVCAR-3 ovarian = system: OVCAR-3 ovarian
MCF7 breast = system: MCF7 breast
U251 CNS = system: U251 CNS
NCI-H23 lung = system: NCI-H23 lung
T-47D breast = system: T-47D breast
OVCAR-8 ovarian = system: OVCAR-8 ovarian
MALME-3M melanoma = system: MALME-3M melanoma
SK-OV-3 ovarian = system: SK-OV-3 ovarian
SW-620 colon = system: SW-620 colon
NCI-H522 lung = system: NCI-H522 lung
RPMI-8226 leukemia = system: RPMI-8226 leukemia
HT29 colon = system: HT29 colon
TK-10 renal = system: TK-10 renal
UACC-62 melanoma = system: UACC-62 melanoma
NCI/ADR-RES ovarian = system: NCI/ADR-RES ovarian
UACC-257 melanoma = system: UACC-257 melanoma
OVCAR-5 ovarian = system: OVCAR-5 ovarian
HS 578T breast = system: HS 578T breast
NCI-H460 lung = system: NCI-H460 lung
SNB-19 CNS = system: SNB-19 CNS
786-0 renal = system: 786-0 renal
PC-3 prostate = system: PC-3 prostate
UO-31 renal = system: UO-31 renal
A498 renal = system: A498 renal
MOLT-4 leukemia = system: MOLT-4 leukemia
SR leukemia = system: SR leukemia
LOX IMVI melanoma = system: LOX IMVI melanoma
SF-295 CNS = system: SF-295 CNS
MDA-MB-435 = system: MDA-MB-435

COc1ccc([C@@H]2[C@@H](O)C(=O)N2c2cc(OC)c(OC)c(OC)c2)cc1
5.61 µM: TGI (RPMI-8226 leukemia)
327 nM: TGI (OVCAR-3 ovarian)
> 57.1 µM: TGI (SK-OV-3 ovarian)
175 nM: TGI (HT29 colon)
173 nM: TGI (COLO 205 colon)
2430 nM: TGI (BT-549 breast)
76.7 nM: TGI (NCI-H522 lung)
> 33.8 µM: TGI (CAKI-1 renal)
> 88.7 µM: TGI (A498 renal)
> 100 µM: TGI (A549 NSCLC) | TGI (SK-MEL-28 melanoma) | TGI (ACHN renal) | TGI (SN12C renal) | TGI (HOP-92 NSCLC) | TGI (SNB-75 CNS) | TGI (SF-539 CNS) | TGI (RXF 393 renal) | TGI (SK-MEL-2 melanoma) | TGI (SF-268 CNS) | TGI (HCT-15 colon) | TGI (K-562 leukemia) | TGI (IGROV1 ovarian) | TGI (MDA-MB-231 breast) | TGI (KM12 colon) | TGI (M14 melanoma) | TGI (OVCAR-4 ovarian) | TGI (DU-145 prostate) | TGI (HOP-62 NSCLC) | TGI (HCT-116 colon) | TGI (NCI-H226 lung) | TGI (EKVX NSCLC) | TGI (MCF7 breast) | TGI (U251 CNS) | TGI (NCI-H23 lung) | TGI (T-47D breast) | TGI (OVCAR-8 ovarian) | TGI (MALME-3M melanoma) | TGI (SW-620 colon) | TGI (TK-10 renal) | TGI (UACC-62 melanoma) | TGI (NCI/ADR-RES ovarian) | TGI (UACC-257 melanoma) | TGI (OVCAR-5 ovarian) | TGI (HS 578T breast) | TGI (NCI-H460 lung) | TGI (SNB-19 CNS) | TGI (786-0 renal) | TGI (PC-3 prostate) | TGI (UO-31 renal) | TGI (MOLT-4 leukemia) | TGI (SR leukemia) | TGI (LOX IMVI melanoma) | TGI (SF-295 CNS)
126 nM: TGI (HL-60(TB) leukemia)
83.7 nM: TGI (MDA-MB-435)
10 µM: TGI (HCC-2998 colon)
232 nM: TGI (SK-MEL-5 melanoma)
inactive: GI50 (HOP-92 NSCLC) > 44.6 µM | GI50 (OVCAR-4 ovarian) 5.86 µM | GI50 (NCI-H226 lung) 525 nM | GI50 (T-47D breast) 19 µM | GI50 (TK-10 renal) 32.9 µM | GI50 (UACC-257 melanoma) 5.35 µM | GI50 (A498 renal) 11.3 µM
active: GI50 (A549 NSCLC) 92.4 nM | GI50 (ACHN renal) 72.3 nM | GI50 (CCRF-CEM leukemia) 41.3 nM | GI50 (SK-MEL-5 melanoma) 45.2 nM | GI50 (SN12C renal) 124 nM | GI50 (SNB-75 CNS) 46.5 nM | GI50 (COLO 205 colon) 69.6 nM | GI50 (CAKI-1 renal) 48.6 nM | GI50 (SF-539 CNS) 30.5 nM | GI50 (RXF 393 renal) 26 nM | GI50 (SK-MEL-2 melanoma) 135 nM | GI50 (SF-268 CNS) 214 nM | GI50 (HCT-15 colon) 72.7 nM | GI50 (K-562 leukemia) 33.9 nM | GI50 (IGROV1 ovarian) 57.7 nM | GI50 (MDA-MB-231 breast) 55.8 nM | GI50 (KM12 colon) 41.3 nM | GI50 (HL-60(TB) leukemia) 30.9 nM | GI50 (HCC-2998 colon) 98.2 nM | GI50 (M14 melanoma) 42.3 nM | GI50 (DU-145 prostate) 76.1 nM | GI50 (HOP-62 NSCLC) 75.8 nM | GI50 (HCT-116 colon) 38.6 nM | GI50 (EKVX NSCLC) 79.9 nM | GI50 (BT-549 breast) 94.1 nM | GI50 (OVCAR-3 ovarian) 34.5 nM | GI50 (MCF7 breast) 35.1 nM | GI50 (U251 CNS) 40.4 nM | GI50 (NCI-H23 lung) 63 nM | GI50 (OVCAR-8 ovarian) 37.6 nM | GI50 (MALME-3M melanoma) 105 nM | GI50 (SK-OV-3 ovarian) 147 nM | GI50 (SW-620 colon) 50.4 nM | GI50 (NCI-H522 lung) 24.8 nM | GI50 (RPMI-8226 leukemia) 44.8 nM | GI50 (HT29 colon) 32.9 nM | GI50 (UACC-62 melanoma) 41.7 nM | GI50 (NCI/ADR-RES ovarian) 72.5 nM | GI50 (OVCAR-5 ovarian) 61.3 nM | GI50 (HS 578T breast) 41 nM | GI50 (NCI-H460 lung) 59.3 nM | GI50 (SNB-19 CNS) 120 nM | GI50 (786-0 renal) 91.6 nM | GI50 (PC-3 prostate) 85.6 nM | GI50 (UO-31 renal) 65.9 nM | GI50 (MOLT-4 leukemia) 101 nM | GI50 (SR leukemia) 34.3 nM | GI50 (LOX IMVI melanoma) 47.3 nM | GI50 (SF-295 CNS) 37.8 nM | GI50 (MDA-MB-435) 28.1 nM
